{
  "source": "patent US20120009239A1",
  "about": "“Prebiotic Formulations for use with Probiotics to Increase Probiotic Growth Rate and Activity” (MASTER SUPPLEMENTS, INC., priority 2010, published 2012)",
  "key": {"[1]": {"system": "L. acidophilus NCFM (LA-1)", "experiment": "Growth (turbidity) and lactic acid producing activity of L. acidophilus NCFM in MRS broth with polysorbate 80 or substitute", "type": "cell-based, Lactobacillus acidophilus", "settings": "for Lactic Acid % / pH: additive at 0.1% in MRS; for NTU (Turbidity): additive at 0.1% in MRS (polysorbate 80 control 1.0 g per liter)", "description": "The prebiotics of this invention can be in the same capsule or formulation as the probiotics, or in a separate dosage form. The prebiotics should be in a separate dosage form if they are naturally occurring, as opposed to adsorbed. […] Prebiotic formulations are often probiotic strain dependent. […] At specified time intervals, a 30 ml sample from each flask was aseptically transferred into a HACH […] Turbidimeter sample cell. The turbidity of each sample was read and the results were reported in NTU's. The same 30 ml sample used for the turbidity reading was transferred into a 250 ml glass beaker, and the pH was recorded. The sample was titrated using 0.1N NaOH to an endpoint of pH 6.8, and the quantity of NaOH used was recorded. The % Lactic Acid was calculated using the following formula: % Lactic Acid=((mls of 0.1N NaOH)×(0.1N)×(90 gm/mole)×(1 L/1000 ml))×100 mls of sample % Lactic Acid=(mls of 0.1N NaOH)×(0.9) (Results reported at 12 hours and 23 hours like: 12/23 in Table I below)"}, "[2]": {"system": "Bifidobacterium lactic Bl-04 (BL-34)", "experiment": "Growth and lactic acid producing activity of Bifidobacterium lactis Bl-04 in MRS broth", "type": "cell-based", "settings": "for Lactic Acid % / pH: additive at 0.1% in MRS; for NTU (Turbidity): additive at 0.1% in MRS (polysorbate 80 control 1.0 g per liter)", "description": "(§1) The prebiotics of this invention can be in the same capsule or formulation as the probiotics, or in a separate dosage form. The prebiotics should be in a separate dosage form if they are naturally occurring, as opposed to adsorbed. The prebiotics of this invention may be taken with carbohydrate or fiber to increase their effectiveness. Prebiotic formulations are often probiotic strain dependent. Some Lactobacillus strains, for example, respond best to a form of lecithin derived from sunflowers (Sunflower Lecithin) while others show no preference to lecithin type and respond equally well to soy lecithin. Other strains show a synergistic response when lecithin is used together with oleic acid. […] Each flask was tempered to 37° C. and aseptically inoculated with 0.14 gm of the individual probiotic strains (in Examples 5 to 10 below) to be tested. At specified time intervals, a 30 ml sample from each flask was aseptically transferred into a HACH […] Turbidimeter sample cell. The turbidity of each sample was read and the results were reported in NTU's. The same 30 ml sample used for the turbidity reading was transferred into a 250 ml glass beaker, and the pH was recorded. The sample was titrated using 0.1N NaOH to an endpoint of pH 6.8, and the quantity of NaOH used was recorded. The % Lactic Acid was calculated using the following formula: % Lactic Acid=((mls of 0.1N NaOH)×(0.1N)×(90 gm/mole)×(1 L/1000 ml))×100 mls of sample % Lactic Acid=(mls of 0.1N NaOH)×(0.9) (Results reported at 12 hours and 23 hours like: 12/23 in Table II below)"}, "[3]": {"system": "Lactobacillus paracasei Lpc-37 (F-19)", "experiment": "Growth and lactic acid producing activity of Lactobacillus paracasei Lpc-37 in MRS broth", "type": "cell-based", "settings": "for Lactic Acid % / pH: additive at 0.1% in MRS; for NTU (Turbidity): additive at 0.1% in MRS (polysorbate 80 control 1.0 g per liter)", "description": "as §1, with “III” for “II”"}, "[4]": {"system": "Lactobacillus rhamnosus—Lr-32 (LR-44)", "experiment": "Growth and lactic acid producing activity of Lactobacillus rhamnosus Lr-32 in MRS broth", "type": "cell-based", "settings": "for Lactic Acid % / pH: additive at 0.1% in MRS; for NTU (Turbidity): additive at 0.1% in MRS (polysorbate 80 control 1.0 g per liter)", "description": "as §1, with “IV” for “II”"}, "[5]": {"system": "Lactobacillus salivarius—Ls-33 (LS-30)", "experiment": "Growth and lactic acid producing activity of Lactobacillus salivarius Ls-33 in MRS broth", "type": "cell-based", "settings": "for Lactic Acid % / pH: additive at 0.1% in MRS; for NTU (Turbidity): additive at 0.1% in MRS (polysorbate 80 control 1.0 g per liter)", "description": "as §1, with “V” for “II”"}, "[6]": {"system": "THERALAC® Lot # 32310A, a commercial probiotic product", "experiment": "Growth of the commercial probiotic […] in MRS broth", "type": "cell-based", "settings": "for Lactic Acid % / pH: additive at 0.1% in MRS; for NTU (Turbidity): additive at 0.1% in MRS (polysorbate 80 control 1.0 g per liter), THERALAC inoculated at 0.1%", "description": "MRS broth was prepared with (for controls) and without (for tests) polysorbate 80 and filled into 1 liter screw cap flasks at 500 ml each and autoclaved at 121° C. for 30 minutes. Various lecithin and/or oleic acid additives, or nothing (negative control), was added to the tests flasks prior to autoclaving. The flasks were then tempered to 37° C. in a water bath and inoculated at 0.1% with […]® Lot # 32310A, a commercial probiotic product (Master Supplements, Inc., Victoria, Minn.). Capsules of […]® were opened and the contents mixed aseptically to serve as the inoculum source. At an inoculation rate of 0.1%, approximately 80 million CFU was added per ml of MRS media. […]® contains (formulation strength) the following probiotic strains at the approximate CFU values listed per gram: Lactobacillus acidophilus NCFM (LA-1): 30 billion CFU Bifidobacterium lactis B1-04 (BL-34): 30 billion CFU Lactobacillus paracasei Lpc-37 (F-19): 14 billion CFU Lactobacillus rhamnosus Lr-32 (LR-44): 6 billion CFU Bifidobacterium lactis Bi-07: 8 billion CFU Turbidity, pH and titrations (made with 0.1 N NaOH and reported as % lactic acid) were made at various times up to 23 hours. The results are presented below in Table VI for the 12 and 23-hour analyses."}, "[7]": {"settings": "at the concentrations studied (0.1% + 0.1%)"}},
  "data": [
    {"molecule": "Polysorbate 80", "values": [
      {"measurement": "Lactic Acid %", "setting": "[1]; 12 hours", "result": 1.09, "unit": "%"},
      {"measurement": "pH", "setting": "[1]; 12 hours", "result": 4.2},
      {"measurement": "NTU (Turbidity)", "setting": "[1]; 12 hours", "result": 1855, "unit": "NTU"},
      {"measurement": "Lactic Acid %", "setting": "[1]; 23 hours", "result": 1.27, "unit": "%"},
      {"measurement": "pH", "setting": "[1]; 23 hours", "result": 4.1},
      {"measurement": "NTU (Turbidity)", "setting": "[1]; 23 hours", "result": 2038, "unit": "NTU"},
      {"measurement": "Lactic Acid %", "setting": "[2]; 12 hours", "result": 0.57, "unit": "%"},
      {"measurement": "pH", "setting": "[2]; 12 hours", "result": 4.8},
      {"measurement": "NTU (Turbidity)", "setting": "[2]; 12 hours", "result": 922, "unit": "NTU"},
      {"measurement": "Lactic Acid %", "setting": "[2]; 23 hours", "result": 0.84, "unit": "%"},
      {"measurement": "pH", "setting": "[2]; 23 hours", "result": 4.5},
      {"measurement": "NTU (Turbidity)", "setting": "[2]; 23 hours", "result": 1434, "unit": "NTU"},
      {"measurement": "Lactic Acid %", "setting": "[3]; 12 hours", "result": 0.99, "unit": "%"},
      {"measurement": "pH", "setting": "[3]; 12 hours", "result": 4.2},
      {"measurement": "NTU (Turbidity)", "setting": "[3]; 12 hours", "result": 1664, "unit": "NTU"},
      {"measurement": "Lactic Acid %", "setting": "[3]; 23 hours", "result": 1.39, "unit": "%"},
      {"measurement": "pH", "setting": "[3]; 23 hours", "result": 3.9},
      {"measurement": "NTU (Turbidity)", "setting": "[3]; 23 hours", "result": 2824, "unit": "NTU"},
      {"measurement": "Lactic Acid %", "setting": "[4]; 12 hours", "result": 1.12, "unit": "%"},
      {"measurement": "pH", "setting": "[4]; 12 hours", "result": 4.0},
      {"measurement": "NTU (Turbidity)", "setting": "[4]; 12 hours", "result": 2804, "unit": "NTU"},
      {"measurement": "Lactic Acid %", "setting": "[4]; 23 hours", "result": 1.67, "unit": "%"},
      {"measurement": "pH", "setting": "[4]; 23 hours", "result": 3.7},
      {"measurement": "NTU (Turbidity)", "setting": "[4]; 23 hours", "result": 3776, "unit": "NTU"},
      {"measurement": "Lactic Acid %", "setting": "[5]; 12 hours", "result": 1.42, "unit": "%"},
      {"measurement": "pH", "setting": "[5]; 12 hours", "result": 3.8},
      {"measurement": "NTU (Turbidity)", "setting": "[5]; 12 hours", "result": 3426, "unit": "NTU"},
      {"measurement": "Lactic Acid %", "setting": "[5]; 23 hours", "result": 1.68, "unit": "%"},
      {"measurement": "pH", "setting": "[5]; 23 hours", "result": 3.7},
      {"measurement": "NTU (Turbidity)", "setting": "[5]; 23 hours", "result": 3931, "unit": "NTU"},
      {"measurement": "Lactic Acid %", "setting": "[6]; 12 hours", "result": 1.42, "unit": "%"},
      {"measurement": "pH", "setting": "[6]; 12 hours", "result": 3.9},
      {"measurement": "NTU (Turbidity)", "setting": "[6]; 12 hours", "result": 3311, "unit": "NTU"},
      {"measurement": "Lactic Acid %", "setting": "[6]; 23 hours", "result": 1.84, "unit": "%"},
      {"measurement": "pH", "setting": "[6]; 23 hours", "result": 3.7},
      {"measurement": "NTU (Turbidity)", "setting": "[6]; 23 hours", "result": 3694, "unit": "NTU"}
    ]},
    {"molecule": "CCCCCCCC/C=C\\CCCCCCCC(=O)O", "note": "[Oleic Acid]", "values": [
      {"measurement": "Replacement of polysorbate 80 (growth and activity), conclusion in words", "setting": "[1]; 0.1% inclusion rate", "result": "somewhat effective"},
      {"measurement": "Replacement of polysorbate 80 (growth and activity), conclusion in words", "setting": "[3]; 0.1% inclusion rate", "result": "not as effective a replacement for polysorbate 80 as sunflower lecithin"},
      {"measurement": "Synergy with sunflower lecithin", "setting": "[3]; [7]", "result": "does not appear to be synergistic"},
      {"measurement": "Replacement of polysorbate 80 (growth and activity), conclusion in words", "setting": "[4]; 0.1% inclusion rate", "result": "not as good a replacement for polysorbate 80 as sunflower lecithin"},
      {"measurement": "Lactic Acid %", "setting": "[4]; 12 hours", "result": 0.072, "unit": "%"},
      {"measurement": "pH", "setting": "[4]; 12 hours", "result": 6.2},
      {"measurement": "pH", "setting": "[4]; 23 hours", "result": 4.1},
      {"measurement": "Synergy with sunflower lecithin", "setting": "[4]; [7]", "result": "not synergistic"},
      {"measurement": "Replacement of polysorbate 80 (growth and activity), conclusion in words", "setting": "[5]; 0.1% inclusion rate", "result": "not as good a replacement"},
      {"measurement": "Lactic Acid %", "setting": "[5]; 12 hours", "result": 0.073, "unit": "%"},
      {"measurement": "pH", "setting": "[5]; 12 hours", "result": 4.4},
      {"measurement": "pH", "setting": "[5]; 23 hours", "result": 3.8},
      {"measurement": "Replacement of polysorbate 80 (growth and activity), conclusion in words", "setting": "[6]; 0.1% inclusion rate", "result": "acceptable replacement value for polysorbate 80"}
    ]}
  ]
}
